Biological target: human σ1 receptor (Homo sapiens, UniProt Q99720)
Assay: Human σ1 receptor radioligand assay ([3H](+)-pentazocine, transfected HEK-293 membranes)
Assay type: binding
Set-up: μ and σ1 dual binding: key to the marks not given beside the values
Settings: one class symbol for both Ki-σ1 (human σ1 receptor, A1) and Ki-μ (human μ-opioid receptor, A2)
Description: Human σ1 Receptor Radioligand Assay
To investigate binding properties of test compounds to human σ1 receptor, transfected HEK-293 membranes and [^3H](+)-pentazocine (Perkin Elmer, NET-1056), as the radioligand, were used. The assay was carried out with 7 μg of membrane suspension, 5 nM of [^3H](+)-pentazocine in either absence or presence of either buffer or 10 μM Haloperidol for total and non-specific binding, respectively. Binding buffer contained Tris-HCl 50 mM at pH 8. Plates were incubated at 37° C. for 120 minutes. After the incubation period, the reaction mix was then transferred to MultiScreen HTS, FC plates (Millipore), filtered and plates were washed 3 times with ice-cold 10 mM Tris-HCL (pH7.4). Filters were dried and counted at approximately 40% efficiency in a MicroBeta scintillation counter (Perkin-Elmer) using EcoScint liquid scintillation cocktail

Sequence of human σ1 receptor (Q99720 whole entry): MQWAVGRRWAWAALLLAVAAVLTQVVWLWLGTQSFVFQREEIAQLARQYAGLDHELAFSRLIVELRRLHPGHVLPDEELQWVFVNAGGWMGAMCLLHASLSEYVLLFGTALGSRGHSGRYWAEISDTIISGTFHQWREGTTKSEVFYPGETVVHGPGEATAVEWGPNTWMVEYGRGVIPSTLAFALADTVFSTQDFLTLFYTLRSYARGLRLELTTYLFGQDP

`CC(C)OCCN1CCN(C2(C(=O)c3ccccn3)CCOC2)CC1` (stereo not shown) [Example 74, (3-(4-(2-isopropoxyethyl)piperazin-1-yl)tetrahydrofuran-3-yl)(pyridin-2-yl)methanone] was tested. Which “μ and σ1 dual binding” value did it give?
The value was “++”.

Which “μ and σ1 dual binding” value does the source give for `CCC1(N2CCN(Cc3ccc(F)cc3)CC2)CCOCC1` [Example 175, 1-(4-ethyltetrahydro-2H-pyran-4-yl)-4-(4-fluorobenzyl)piperazine] here?
Its value is “++”.

Which “μ and σ1 dual binding” value does the source give for `N#Cc1cccc(CN2CCN(C3(c4ccccc4)CCOC4(CCCC4)C3)CC2)c1` (stereo not shown) [Example 121, 3-((4-(9-phenyl-6-oxaspiro[4.5]decan-9-yl)piperazin-1-yl)methyl)benzonitrile] here?
The value was “++”.

How did the “μ and σ1 dual binding” value turn out when `OC(c1ccccn1)C1(C2CCN(Cc3ccccc3)CC2)CCOCC1` (stereo not shown) [Example 130, (4-(1-benzylpiperidin-4-yl)tetrahydro-2H-pyran-4-yl)(pyridin-2-yl)methanol] was run?
Its value is “++”.

`CC(C)OCCN1CCC([C@@]2(C(=O)c3ccccn3)CCO[C@@H](C)C2)CC1` [Example 172] was tested. Which “μ and σ1 dual binding” value did it give?
Its value is “++”.

How did the “μ and σ1 dual binding” value turn out when `CC1(C)CC(C2CCN(Cc3ccccc3)CC2)(C(O)c2ccccn2)CCO1` (stereo not shown) [Example 131, (4-(1-benzylpiperidin-4-yl)-2,2-dimethyltetrahydro-2H-pyran-4-yl)(pyridin-2-yl)methanol] was run?
The value was “++”.

How did the “μ and σ1 dual binding” value turn out when `CC[C@]1(N2CCN(Cc3ccccc3)CC2)CCO[C@@H](C)C1` [Example 163, 1-benzyl-4-((2S,4S)-4-ethyl-2-methyltetrahydro-2H-pyran-4-yl)piperazine] was run?
Its value is “++”.

With `CC(C)OCCN1CCC([C@]2(C(=O)c3ccccn3)CCO[C@H](C)C2)CC1` [Example 249, ((2R,4S)-4-(1-(2-isopropoxyethyl)piperidin-4-yl)-2-methyltetrahydro-2H-pyran-4-yl)(pyridin-2-yl)methanone] as the molecule, how does the “μ and σ1 dual binding” value read?
Its value is “++”.

Which “μ and σ1 dual binding” value does the source give for `CC[C@@]1(N2CCN(CCC(C)C)CC2)CCO[C@@H](C)C1` [Example 160, 1-((2S,4R)-4-ethyl-2-methyltetrahydro-2H-pyran-4-yl)-4-isopentylpiperazine] here?
Its value is “++”.

How did the “μ and σ1 dual binding” value turn out when `CC1(N2CCN(Cc3ccc(F)cc3)CC2)CCOCC1` [Example 182, 1-(4-fluorobenzyl)-4-(4-methyltetrahydro-2H-pyran-4-yl)piperazine] was run?
Its value is “++”.

How did the “μ and σ1 dual binding” value turn out when `CC(C)OCCN1CCC([C@]2(C(=O)c3ccccn3)CCOC(C)(C)C2)CC1` [Example 244, (S)-(4-(1-(2-isopropoxyethyl)piperidin-4-yl)-2,2-dimethyltetrahydro-2H-pyran-4-yl)(pyridin-2-yl)methanone] was run?
Its value is “++”.

How did the “μ and σ1 dual binding” value turn out when `CC[C@]1(N2CCN(CCC(C)C)CC2)CCO[C@@H](C)C1` [Example 159, 1-((2S,4S)-4-ethyl-2-methyltetrahydro-2H-pyran-4-yl)-4-isopentylpiperazine] was run?
Its value is “++”.

Which “μ and σ1 dual binding” value does the source give for `CC[C@@]1(N2CCN(Cc3ccccc3)CC2)CCO[C@@H](C)C1` [Example 164, 1-benzyl-4-((2S,4R)-4-ethyl-2-methyltetrahydro-2H-pyran-4-yl)piperazine] here?
The value was “++”.

With `CN(Cc1ccccc1)C1CN(C2(C(=O)c3ccccn3)CCOC(C)(C)C2)C1` (stereo not shown) [Example 19, (4-(3-(benzyl(methyl)amino)azetidin-1-yl)-2,2-dimethyltetrahydro-2H-pyran-4-yl)(pyridin-2-yl)methanone] as the molecule, how does the “μ and σ1 dual binding” value read?
The value was “++”.

`CC1(N2CCN(Cc3ccc(C#N)cc3)CC2)CCOCC1` [Example 183, 4-((4-(4-methyltetrahydro-2H-pyran-4-yl)piperazin-1-yl)methyl)benzonitrile] was tested. Which “μ and σ1 dual binding” value did it give?
The value was “++”.

Same assay, conditions: one class symbol for both Ki-σ1 (human σ1 receptor, A1) and Ki-μ (human μ-opioid receptor, A2); read-out: μ and σ1 dual binding

For `CC[C@@]1(N2CCN(Cc3ccc(C#N)cc3)CC2)CCO[C@@H](C)C1` [Example 250, 4-((4-((2S,4R)-4-ethyl-2-methyltetrahydro-2H-pyran-4-yl)piperazin-1-yl)methyl)benzonitrile], which Ki is on record?
Its Ki is over 500 nM.

For `C[C@@H]1C[C@@](C(=O)c2ccccn2)(N2CCN(CCc3ccccc3)CC2)CCO1` [Example 26], which Ki is on record?
Its Ki is under 500 nM.

`CC1(C)CC(C(=O)c2ccccn2)(N2CCN(CCc3cccnc3)CC2)CCO1` (stereo not shown) [Example 80, (2,2-dimethyl-4-(4-(2-(pyridin-3-yl)ethyl)piperazin-1-yl)tetrahydro-2H-pyran-4-yl)(pyridin-2-yl)methanone] was tested. Which Ki did it give?
The Ki was over 500 nM.

How did the Ki turn out when `CC1(C)CC(CCO)(N2CCN(CCc3ccccc3)CC2)CCO1` (stereo not shown) [Example 48, 2-(2,2-dimethyl-4-(4-phenethylpiperazin-1-yl)tetrahydro-2H-pyran-4-yl)ethanol] was run?
Its Ki is over 500 nM.

How did the Ki turn out when `CC1(C)CC(C(=O)c2ccccn2)(N2CCN(CCc3ccncc3)CC2)CCO1` (stereo not shown) [Example 81, (2,2-dimethyl-4-(4-(2-(pyridin-4-yl)ethyl)piperazin-1-yl)tetrahydro-2H-pyran-4-yl)(pyridin-2-yl)methanone] was run?
Its Ki is over 500 nM.

`CCC1(N2CCN(CCc3ccccc3)CC2)CCOC(C)(C)C1` (stereo not shown) [Example 52, 1-(4-ethyl-2,2-dimethyltetrahydro-2H-pyran-4-yl)-4-phenethylpiperazine] was tested. Which Ki did it give?
The Ki was under 500 nM.

Same assay, conditions: μ and σ1 dual binding, one class symbol for both Ki-σ1 (human σ1 receptor, A1) and Ki-μ (human μ-opioid receptor, A2)

For `O=C(c1ccccc1)C1(N2CCN(Cc3ccccc3)CC2)CCOC2(CCCC2)C1` (stereo not shown) [Example 4, (9-(4-benzylpiperazin-1-yl)-6-oxaspiro[4.5]decan-9-yl)(phenyl)methanone], which Ki is on record?
Its Ki is under 100 nM.

For `CC(C)COCCN1CCN(C2(C(=O)c3ccccn3)CCOC(C)(C)C2)CC1` (stereo not shown) [Example 66, (4-(4-(2-isobutoxyethyl)piperazin-1-yl)-2,2-dimethyltetrahydro-2H-pyran-4-yl)(pyridin-2-yl)methanone], which Ki is on record?
Its Ki is under 500 nM.

With `CC(C)CN1CCN(C2(c3ccccc3)CCOC3(CCCC3)C2)CC1` (stereo not shown) [Example 33, 1-isobutyl-4-(9-phenyl-6-oxaspiro[4.5]decan-9-yl)piperazine] as the molecule, how does the Ki read?
Its Ki is under 500 nM.

`CCC1(N2CCN(CCc3cccc(F)c3)CC2)CCOC(C)(C)C1` (stereo not shown) [Example 93, 1-(4-ethyl-2,2-dimethyltetrahydro-2H-pyran-4-yl)-4-(3-fluorophenethyl)piperazine] was tested. Which Ki did it give?
The Ki was under 500 nM.

For `CC(C)CN1CCN(C2(C(=O)c3ccccc3)CCOC3(CCCC3)C2)CC1` (stereo not shown) [Example 7, (9-(4-isobutylpiperazin-1-yl)-6-oxaspiro[4.5]decan-9-yl)(phenyl)methanone], which Ki is on record?
Its Ki is under 100 nM.

For `CC1(C)CC(C(=O)c2ccccn2)(N2CCN(Cc3cccc(F)c3)CC2)CCO1` (stereo not shown) [Example 61, (4-(4-(3-fluorobenzyl)piperazin-1-yl)-2,2-dimethyltetrahydro-2H-pyran-4-yl)(pyridin-2-yl)methanone], which Ki is on record?
The Ki was under 500 nM.

For `CC1(C)CC(C(=O)c2ccccn2)(N2CC3CN(Cc4ccccc4)CC3C2)CCO1` (stereo not shown) [Example 18, (4-(5-benzylhexahydropyrrolo[3,4-c]pyrrol-2(1H)-yl)-2,2-dimethyltetrahydro-2H-pyran-4-yl)(pyridin-2-yl)methanone], which Ki is on record?
Its Ki is under 500 nM.

For `CCC1(N2CCN(CCc3cccc(F)c3F)CC2)CCOC(C)(C)C1` (stereo not shown) [Example 100, 1-(2,3-difluorophenethyl)-4-(4-ethyl-2,2-dimethyltetrahydro-2H-pyran-4-yl)piperazine], which Ki is on record?
The Ki was under 500 nM.

`CC(C)CCN1CCC([C@@]2(C(=O)c3ccccn3)CCOC(C)(C)C2)CC1` [Example 115, (R)-(4-(1-isopentylpiperidin-4-yl)-2,2-dimethyltetrahydro-2H-pyran-4-yl)(pyridin-2-yl)methanone] was tested. Which Ki did it give?
The Ki was under 500 nM.

With `CC(C)CCN1CCN([C@@]2(C(=O)c3ccccn3)CCOC(C)(C)C2)CC1` [Example 132, (S)-(4-(4-isopentylpiperazin-1-yl)-2,2-dimethyltetrahydro-2H-pyran-4-yl)(pyridin-2-yl)methanone] as the molecule, how does the Ki read?
Its Ki is under 500 nM.

— US10807970B2 (priority 2016, dated 2020)
